Measured values: patent publication EP4273147A1, “SUBSTITUTED SPIROLACTAMS, SALTS THEREOF AND THEIR USE AS HERBICIDALLY ACTIVE SUBSTANCES” (Bayer Aktiengesellschaft, priority 2022, dated 2023)

How the values were obtained:
[1] = system: VIOTR; test: Herbicidal post-emergence action, section E (Table E10); format: in vivo, Viola tricolor; details: application rate 320 g/ha; assessed visually after ca. 3 weeks
Excerpt: (§1) 2 to 3 weeks after sowing, the test plants were sprayed in the single-leaf stage.

[2] = system: POLCO; test: Herbicidal pre-emergence action, section C (Table C9); format: in vivo, Polygonum convolvulus; details: visual grading after ca. 3 weeks
[3] = system: DIGSA; test: Herbicidal pre-emergence action (Table A12); format: in vivo, Digitaria sanguinalis; details: visual grading after ca. 3 weeks
Summary of the method: (§2)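 Sown in sandy loam in pots and covered with soil: weed seeds, two species per pot, one of each plant class (mono- and dicotyledonous).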

[4] = system: DIGSA; test: Herbicidal pre-emergence action, section C (Table C5); format: in vivo, Digitaria sanguinalis; details: application rate 320 g/ha; visual grading after ca. 3 weeks
[5] = system: ORYZA; test: Pre-emergence effects on crop plants (Table D3); details: crop plant; application rate 80 g/ha; visual grading after ca. 3 weeks
[6] = system: VIOTR; test: Herbicidal pre-emergence action, section C (Table C12); format: in vivo, Viola tricolor; details: application rate 80 g/ha; visual grading after ca. 3 weeks
Excerpt: (§4) Seeds of mono- and dicotyledonous weed plants and crop plants were sown, in plastic or organic planting pots, in sandy loam and covered with soil. The compounds according to the invention, formulated in the form of wettable powders (WP) or as emulsifiable concentrates (EC), were applied to the surface of the covering soil as aqueous suspension or emulsion, with the addition of 0.5% of an additive, at an application rate of 600 1 of water/ha (converted). Following treatment, the pots were placed in a greenhouse and kept under optimum growth conditions for the test plants.

[7] = system: POAAN; test: Herbicidal post-emergence action (Table B7); format: in vivo, Poa annua; details: application rate 1280 g/ha
Summary of the method: (§3)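 Greenhouse pot assay, sandy loam soil, one weed species per pot. Application at one-leaf stage. Readout ~3 wk post-treatment: visual % activity, 100 = dead, 0 = as untreated.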

[8] = system: ABUTH; test: Herbicidal pre-emergence action (Table A1); format: in vivo, Abutilon theophrasti; details: application rate 1280 g/ha; visual grading after ca. 3 weeks vs untreated controls (100% = plants have died off, 0% = as control plants)
Summary of the method: as §2

[9] = system: LOLRI; test: Herbicidal pre-emergence action, section C (Table C7); format: in vivo, Lolium rigidum; details: application rate 320 g/ha; visual grading after ca. 3 weeks
[10] = system: TRZAS; test: Pre-emergence effects on crop plants (Table D2); format: in vivo, Triticum aestivum; details: crop plant; application rate 80 g/ha; visual grading after ca. 3 weeks
[11] = system: ECHCG; test: Herbicidal pre-emergence action, section C (Table C6); format: in vivo, Echinochloa crus-galli; details: visual grading after ca. 3 weeks
[12] = system: ORYZA; test: Post-emergence effects on crop plants (Table F3); format: in vivo, Oryza sativa; details: application rate 320 g/ha, crop plant ORYZA
Excerpt: as §1

[13] = system: GLXMA; test: Post-emergence effects on crop plants (Table F4); format: in vivo, Glycine max; details: application rate 80 g/ha, crop plant GLXMA
Excerpt: as §1

[14] = system: ZEAMX; test: Pre-emergence effects on crop plants (Table D1); format: in vivo, Zea mays; details: crop plant, visual grading after ca. 3 weeks
[15] = system: SETVI; test: Herbicidal pre-emergence action, section C (Table C10); format: in vivo, Setaria viridis; details: visual grading after ca. 3 weeks
[16] = system: VERPE; test: Herbicidal pre-emergence action (Table A11); format: in vivo, Veronica persica; details: application rate 1280 g/ha; visual grading after ca. 3 weeks
Summary of the method: as §2

[17] = system: SETVI; test: Herbicidal pre-emergence action (Table A5); format: in vivo, Setaria viridis; details: application rate 320 g/ha; visual grading after ca. 3 weeks
Summary of the method: as §2

[18] = system: POAAN; test: Herbicidal pre-emergence action (Table A7); format: in vivo, Poa annua; details: application rate 320 g/ha; visual grading after ca. 3 weeks
Summary of the method: as §2

[19] = system: VERPE; test: Herbicidal pre-emergence action, section C (Table C11); format: in vivo, Veronica persica; details: application rate 320 g/ha; visual grading after ca. 3 weeks
[20] = system: MATIN; test: Herbicidal pre-emergence action (Table A4); format: in vivo, Matricaria inodora; details: visual grading after ca. 3 weeks
Summary of the method: as §2

[21] = system: MATIN; test: Herbicidal pre-emergence action, section C (Table C8); format: in vivo, Matricaria inodora; details: application rate 320 g/ha; visual grading after ca. 3 weeks
Excerpt: as §4

[22] = system: BRSNW; test: Post-emergence effects on crop plants (Table F5); format: in vivo, Brassica napus; details: crop plant BRSNW
Excerpt: as §1

[23] = system: ECHCG; test: Herbicidal pre-emergence action (Table A2); format: in vivo, Echinochloa crus-galli; details: visual grading after ca. 3 weeks
Summary of the method: as §2

[24] = system: SETVI; test: Herbicidal post-emergence action (Table B8); format: in vivo, Setaria viridis; details: application rate 1280 g/ha
Summary of the method: as §3

[25] = system: ALOMY; test: Herbicidal pre-emergence action, section C (Table C2); format: in vivo, Alopecurus myosuroides; details: application rate 320 g/ha; visual grading after ca. 3 weeks
[26] = system: STEME; test: Herbicidal pre-emergence action (Table A6); format: in vivo, Stellaria media; details: application rate 320 g/ha; visual grading after ca. 3 weeks
Summary of the method: as §2

[27] = system: ALOMY; test: Herbicidal pre-emergence action (Table A9); format: in vivo, Alopecurus myosuroides; details: application rate 1280 g/ha; visual grading after ca. 3 weeks
Summary of the method: as §2

[28] = system: ABUTH; test: Herbicidal pre-emergence action, section C (Table C1); format: in vivo, Abutilon theophrasti; details: application rate 320 g/ha; visual grading after ca. 3 weeks
[29] = system: LOLRI; test: Herbicidal pre-emergence action (Table A3); format: in vivo, Lolium rigidum; details: application rate 320 g/ha; visual grading after ca. 3 weeks
Summary of the method: as §2

[30] = system: TRZAS; test: Post-emergence effects on crop plants (Table F2); format: in vivo, Triticum aestivum; details: application rate 320 g/ha, crop plant TRZAS
Excerpt: as §1

[31] = system: AMARE; test: Herbicidal pre-emergence action (Table A8); format: in vivo, Amaranthus retroflexus; details: application rate 1280 g/ha; visual grading after ca. 3 weeks vs untreated controls (100% = plants have died off, 0% = as control plants)
Excerpt: Seeds of mono- and dicotyledonous weed plants were sown in plastic pots (double sowings with one species of mono- and one species of dicotyledonous weed plants per pot), in sandy loam, and covered with soil.

[32] = system: ZEAMX; test: Post-emergence effects on crop plants (Table F1); format: in vivo, Zea mays; details: crop plant ZEAMX
Excerpt: as §1

[33] = system: ABUTH; test: Herbicidal post-emergence action (Table B1); format: in vivo, Abutilon theophrasti; details: application rate 1280 g/ha; treated at one-leaf stage; rated visually after about 3 weeks vs untreated controls (100% = plants have died, 0% = like control plants)
Experimental: Seeds of mono- and dicotyledonous weed plants were placed in plastic pots in sandy loam soil (doubly sown with in each case one species of mono- or dicotyledonous weed plants per pot), covered with soil and cultivated in a greenhouse under controlled growth conditions. 2 to 3 weeks after sowing, the test plants were treated at the one-leaf stage. […] After the test plants had been kept in the greenhouse under optimum growth conditions for about 3 weeks, the activity of the preparations was rated visually in comparison to untreated controls. For example, 100% activity = the plants have died, 0% activity = like control plants.

[34] = system: ECHCG; test: Herbicidal post-emergence action, section E (Table E5); format: in vivo, Echinochloa crus-galli; details: application rate 320 g/ha; assessed visually after ca. 3 weeks
Excerpt: as §1

[35] = system: GLXMA; test: Pre-emergence effects on crop plants (Table D4); format: in vivo, Glycine max; details: crop plant; application rate 80 g/ha; visual grading after ca. 3 weeks
[36] = system: KCHSC; test: Herbicidal pre-emergence action (Table A10); format: in vivo, Kochia scoparia; details: application rate 320 g/ha; visual grading after ca. 3 weeks
Summary of the method: as §2

[37] = system: VERPE; test: Herbicidal post-emergence action, section E (Table E9); format: in vivo, Veronica persica; details: application rate 320 g/ha; assessed visually after ca. 3 weeks
Excerpt: as §1

[38] = system: ECHCG; test: Herbicidal post-emergence action (Table B3); format: in vivo, Echinochloa crus-galli; details: application rate 1280 g/ha; rated visually after about 3 weeks
Summary of the method: as §3

| Structure (SMILES) | post-emergence activity against VIOTR [1] | pre-emergence activity against DIGSA [4] | pre-emergence activity against ORYZA [5] | pre-emergence activity against VIOTR [6] | post-emergence activity against POAAN [7] | pre-emergence activity against ABUTH [8] | pre-emergence activity against LOLRI [9] | pre-emergence activity against TRZAS [10] | pre-emergence activity against ECHCG ([11]; application rate 80 g/ha) | post-emergence activity against ORYZA [12] | pre-emergence activity against VERPE [16] | pre-emergence activity against SETVI [17] | pre-emergence activity against POAAN [18] | pre-emergence activity against VERPE [19] | pre-emergence activity against MATIN [21] | post-emergence activity against BRSNW ([22]; application rate 80 g/ha) | post-emergence activity against SETVI [24] | pre-emergence activity against ALOMY [25] | pre-emergence activity against STEME [26] | post-emergence activity against TRZAS [30] | other results |
| --- | --- | --- | --- | --- | --- | --- | --- | --- | --- | --- | --- | --- | --- | --- | --- | --- | --- | --- | --- | --- | --- |
| O=C1N(Cc2ccccc2F)CCCC12CCN(Cc1ccccc1F)C2=O (racemic) [I-026] | 80% | 100% | 0% | 90% | 90% | 90% | 100% | 0% | 100% | 0% | 90% | 100% | 100% | 80% | 90% | 0% | 90% | 100% | 90% | 0% | pre-emergence activity against POLCO ([2]; application rate 80 g/ha): 80%; pre-emergence activity against DIGSA ([3]; application rate 320 g/ha): 100%; post-emergence activity against GLXMA [13]: 0%; pre-emergence activity against ZEAMX ([14]; application rate 80 g/ha): 0%; pre-emergence activity against SETVI ([15]; application rate 80 g/ha): 100%; pre-emergence activity against MATIN ([20]; application rate 320 g/ha): 90%; pre-emergence activity against ECHCG ([23]; application rate 320 g/ha): 100%; pre-emergence activity against ALOMY [27]: 100%; pre-emergence activity against ABUTH [28]: 80%; pre-emergence activity against LOLRI [29]: 100%; pre-emergence activity against AMARE [31]: 90%; post-emergence activity against ZEAMX ([32]; application rate 80 g/ha): 0%; post-emergence activity against ABUTH [33]: 90% |
| O=C1N(Cc2cc(F)c(F)cc2F)CCCC12CCCN(Cc1cc(F)c(F)cc1F)C2=O (single isomer, unassigned; (+)) [I-215, (+)-2,8-bis(2,4,5-trifluorophenylmethyl)-2,8-diazaspiro[5.5]undecane-1,7-dione] | 80% | 100% | – | 90% | – | – | – | – | – | – | – | – | – | 80% | – | – | – | 100% | – | 0% | pre-emergence activity against POLCO ([2]; application rate 320 g/ha): 80%; pre-emergence activity against ECHCG ([11]; application rate 320 g/ha): 100%; pre-emergence activity against SETVI ([15]; application rate 320 g/ha): 100%; post-emergence activity against BRSNW ([22]; application rate 320 g/ha): 0%; post-emergence activity against ZEAMX ([32]; application rate 320 g/ha): 0%; post-emergence activity against ECHCG [34]: 90% |
| O=C1N(Cc2cccc(F)c2F)CCCC12CCN(Cc1c(F)cccc1F)C2=O (racemic) [I-032] | – | 100% | 0% | 90% | 90% | 90% | 100% | 0% | 100% | 0% | 90% | 100% | 100% | 80% | 80% | 0% | 90% | 90% | 90% | 0% | pre-emergence activity against POLCO ([2]; application rate 320 g/ha): 80%; pre-emergence activity against DIGSA ([3]; application rate 1280 g/ha): 100%; pre-emergence activity against GLXMA [35]: 0%; pre-emergence activity against ZEAMX ([14]; application rate 320 g/ha): 0%; pre-emergence activity against SETVI ([15]; application rate 320 g/ha): 100%; pre-emergence activity against KCHSC [36]: 90%; pre-emergence activity against MATIN ([20]; application rate 1280 g/ha): 90%; pre-emergence activity against ECHCG ([23]; application rate 1280 g/ha): 100%; pre-emergence activity against ALOMY [27]: 90%; post-emergence activity against VERPE [37]: 90%; pre-emergence activity against LOLRI [29]: 100%; post-emergence activity against ECHCG [38]: 90%; pre-emergence activity against AMARE [31]: 90%; post-emergence activity against ZEAMX ([32]; application rate 80 g/ha): 20%; post-emergence activity against ECHCG [34]: 80%; post-emergence activity against ABUTH [33]: 90% |
